In brackets after ≈: the same amount, converted by molar mass. Values belong to the molecule of their own block, whether it stands above or below them.
Tests used:
Assay type in all cases: cell-based
[1] = test system: drug resistant strains of Acinetobacter baumannii; assay: anti-drug resistant strains of Acinetobacter baumannii (MIC)
Usutu virus (USUV) = assay: anti-Usutu virus activity (inhibition rate); settings: for inhibition at 11 µM / inhibition at 33 µM: Usutu virus
Zika virus (ZIKV) = assay: anti-Zika virus activity (inhibition rate); settings: for inhibition at 11 µM / inhibition at 33 µM: Zika virus
[2] = resistant strain of Acinetobacter baumannii no. 17
[3] = resistant strain of Acinetobacter baumannii no. 18
[4] = resistant strain of Acinetobacter baumannii no. 19
[5] = resistant strain of Acinetobacter baumannii no. 20

MIC [1, 2]: > 64 µg/mL
MIC [1, 3]: 8 µg/mL (≈ 23.2 µM)
MIC [1, 4]: 8 µg/mL (≈ 23.2 µM)
MIC [1, 5]: 8 µg/mL (≈ 23.2 µM)
SMILES: O=C1C2Cc3ccccc3CN2C(c2ccco2)N1Nc1ccccc1 (stereo not drawn) [ZSD-28B]

SMILES: CC(C)(C)[Si](C)(C)Oc1cccc(C2N(Nc3ccccc3)C(=O)C3CCc4ccccc4N32)c1 (stereo not drawn) [ZXD-147B]
inhibition at 11 µM (Usutu virus (USUV); Drug concentration 11 μM): > 100%
inhibition at 11 µM (Zika virus (ZIKV); Drug concentration 11 μM): > 100%

SMILES: O=C1[C@@H]2Cc3ccccc3N2[C@@H](c2ccc([N+](=O)[O-])cc2)N1Nc1ccccc1 [ZDL-19]
inhibition at 11 µM (Usutu virus (USUV); Drug concentration 11 μM): < 0%
inhibition at 33 µM (Usutu virus (USUV); Drug concentration 33 μM): > 100%
inhibition at 11 µM (Zika virus (ZIKV); Drug concentration 11 μM): < 0%
inhibition at 33 µM (Zika virus (ZIKV); Drug concentration 33 μM): 0 to 100%

SMILES: O=C1[C@@H]2Cc3ccccc3CN2C(c2ccc(O)cc2)N1c1ccc([N+](=O)[O-])cc1 (stereo partly drawn) [ZSD-7]
Anti-USUV activity (inhibition rate) (Usutu virus (USUV); Drug concentration 11 μM): − (−: Inactive)
Anti-USUV activity (inhibition rate) (Usutu virus (USUV); Drug concentration 33 μM): +++ (+++: Complete suppression)
Anti-ZIKV activity (inhibition rate) (Zika virus (ZIKV); Drug concentration 11 μM): − (−: Inactive)
Anti-ZIKV activity (inhibition rate) (Zika virus (ZIKV); Drug concentration 33 μM): +++ (+++: Complete suppression)

MIC [1, 2]: 2 µg/mL (≈ 8.96 µM)
MIC [1, 3]: 2 µg/mL (≈ 8.96 µM)
MIC [1, 4]: 2 µg/mL (≈ 8.96 µM)
MIC [1, 5]: 1 µg/mL (≈ 4.48 µM)
SMILES: O=C(NNc1ccc(F)cc1)[C@H]1CCNC1 [ZBM-19]

SMILES: COc1cc([C@H]2N(Nc3ccccc3)C(=O)[C@@H]3Cc4ccccc4N32)ccc1O [ZDL-21]
inhibition at 11 µM (Usutu virus (USUV); Drug concentration 11 μM): < 0%
inhibition at 33 µM (Usutu virus (USUV); Drug concentration 33 μM): < 0%
inhibition at 11 µM (Zika virus (ZIKV); Drug concentration 11 μM): < 0%
inhibition at 33 µM (Zika virus (ZIKV); Drug concentration 33 μM): 0 to 100%

SMILES: O=C1[C@@H]2CCc3ccccc3N2C(c2ccc([N+](=O)[O-])c(O)c2)N1Nc1ccccc1 (stereo partly drawn) [ZXD-95]
inhibition at 11 µM (Usutu virus (USUV); Drug concentration 11 μM): < 0%
inhibition at 33 µM (Usutu virus (USUV); Drug concentration 33 μM): 0 to 100%
inhibition at 11 µM (Zika virus (ZIKV); Drug concentration 11 μM): 0 to 100%

SMILES: CC(C)(C)[Si](C)(C)Oc1ccc(C2N(Nc3ccccc3)C(=O)C3CCc4ccccc4N32)cc1 (stereo not drawn) [ZXD-131B]
inhibition at 11 µM (Usutu virus (USUV); Drug concentration 11 μM): 0 to 100%
inhibition at 11 µM (Zika virus (ZIKV); Drug concentration 11 μM): < 0%
inhibition at 33 µM (Zika virus (ZIKV); Drug concentration 33 μM): < 0%

SMILES: COc1cc(C2N(c3ccc([N+](=O)[O-])cc3)C(=O)[C@@H]3Cc4ccccc4CN23)ccc1O (stereo partly drawn) [ZSD-8]
inhibition at 11 µM (Usutu virus (USUV); Drug concentration 11 μM): < 0%
inhibition at 33 µM (Usutu virus (USUV); Drug concentration 33 μM): < 0%
inhibition at 11 µM (Zika virus (ZIKV); Drug concentration 11 μM): 0 to 100%
inhibition at 33 µM (Zika virus (ZIKV); Drug concentration 33 μM): > 100%

MIC [1, 2]: 0.5 µg/mL (≈ 2.28 µM)
MIC [1, 3]: 0.5 µg/mL (≈ 2.28 µM)
MIC [1, 4]: 0.5 µg/mL (≈ 2.28 µM)
MIC [1, 5]: 0.5 µg/mL (≈ 2.28 µM)
SMILES: O=C(NNc1ccc(F)cc1)c1ccc[nH]1 [ZBM-21]

SMILES: O=C1[C@@H]2Cc3ccccc3CN2C(c2ccc(O)c(O)c2)N1c1ccc([N+](=O)[O-])cc1 (stereo partly drawn) [ZSD-11]
inhibition at 11 µM (Usutu virus (USUV); Drug concentration 11 μM): < 0%
inhibition at 33 µM (Usutu virus (USUV); Drug concentration 33 μM): 0 to 100%
inhibition at 11 µM (Zika virus (ZIKV); Drug concentration 11 μM): < 0%
inhibition at 33 µM (Zika virus (ZIKV); Drug concentration 33 μM): > 100%

SMILES: CC1(C)OC[C@]2(C)C(CC[C@@]3(C)[C@H](C[C@H]4N(NS(=O)(=O)c5ccc([N+](=O)[O-])cc5)C(=O)[C@@H]5Cc6ccccc6N54)C(=O)CC[C@@H]32)O1 (stereo partly drawn) [ZDL-41]
Anti-USUV activity (inhibition rate) (Usutu virus (USUV); Drug concentration 11 μM): +++ (+++: Complete suppression)
Anti-ZIKV activity (inhibition rate) (Zika virus (ZIKV); Drug concentration 11 μM): +++ (+++: Complete suppression)

SMILES: O=C1[C@@H]2Cc3ccccc3N2[C@@H](c2ccc([N+](=O)[O-])cc2)N1NS(=O)(=O)c1ccc([N+](=O)[O-])cc1 [ZDL-38]
inhibition at 11 µM (Usutu virus (USUV); Drug concentration 11 μM): < 0%
inhibition at 33 µM (Usutu virus (USUV); Drug concentration 33 μM): 0 to 100%
inhibition at 11 µM (Zika virus (ZIKV); Drug concentration 11 μM): < 0%
inhibition at 33 µM (Zika virus (ZIKV); Drug concentration 33 μM): < 0%

SMILES: O=C(Nc1ccc([N+](=O)[O-])cc1)C1CCc2ccccc2N1C(=O)O (stereo not drawn) [ZXD-62]
Anti-USUV activity (inhibition rate) (Usutu virus (USUV); Drug concentration 11 μM): − (−: Inactive)
Anti-USUV activity (inhibition rate) (Usutu virus (USUV); Drug concentration 33 μM): + (+: Partial suppression)
Anti-ZIKV activity (inhibition rate) (Zika virus (ZIKV); Drug concentration 11 μM): − (−: Inactive)
Anti-ZIKV activity (inhibition rate) (Zika virus (ZIKV); Drug concentration 33 μM): +++ (+++: Complete suppression)

SMILES: O=C1C2CCc3ccccc3N2C(c2ccc(O)cc2)N1Nc1ccccc1 (single isomer, unassigned) [ZXD-86B]
Anti-USUV activity (inhibition rate) (Usutu virus (USUV); Drug concentration 11 μM): +++ (+++: Complete suppression)
Anti-USUV activity (inhibition rate) (Usutu virus (USUV); Drug concentration 33 μM): +++ (+++: Complete suppression)
Anti-ZIKV activity (inhibition rate) (Zika virus (ZIKV); Drug concentration 11 μM): + (+: Partial suppression)
Anti-ZIKV activity (inhibition rate) (Zika virus (ZIKV); Drug concentration 33 μM): +++ (+++: Complete suppression)

SMILES: O=C1[C@H]2CCc3ccccc3N2C(c2ccc(O)cc2)N1Nc1ccccc1 (stereo partly drawn) [ZXD-86A]
inhibition at 11 µM (Usutu virus (USUV); Drug concentration 11 μM): < 0%
inhibition at 33 µM (Usutu virus (USUV); Drug concentration 33 μM): < 0%
inhibition at 11 µM (Zika virus (ZIKV); Drug concentration 11 μM): < 0%
inhibition at 33 µM (Zika virus (ZIKV); Drug concentration 33 μM): > 100%

MIC [1, 2]: 1 µg/mL (≈ 3.69 µM)
MIC [1, 3]: 2 µg/mL (≈ 7.37 µM)
MIC [1, 4]: 1 µg/mL (≈ 3.69 µM)
MIC [1, 5]: 1 µg/mL (≈ 3.69 µM)
SMILES: O=C(NNc1ccc(F)cc1)C1CNc2ccccc21 (stereo not drawn) [ZBM-11]

MIC [1, 2]: 2 µg/mL (≈ 7.48 µM)
MIC [1, 3]: 8 µg/mL (≈ 29.9 µM)
MIC [1, 4]: 4 µg/mL (≈ 15 µM)
MIC [1, 5]: 4 µg/mL (≈ 15 µM)
SMILES: O=C(NNc1ccccc1)[C@@H]1Cc2ccccc2CN1 [ZSD-16]

SMILES: COc1ccc(C2N(c3ccc([N+](=O)[O-])cc3)C(=O)[C@@H]3Cc4ccccc4CN23)cc1OC (stereo partly drawn) [ZSD-12B]
inhibition at 11 µM (Usutu virus (USUV); Drug concentration 11 μM): < 0%
inhibition at 33 µM (Usutu virus (USUV); Drug concentration 33 μM): 0 to 100%
inhibition at 11 µM (Zika virus (ZIKV); Drug concentration 11 μM): < 0%
inhibition at 33 µM (Zika virus (ZIKV); Drug concentration 33 μM): < 0%

MIC [1, 2]: 4 µg/mL (≈ 19.9 µM)
MIC [1, 3]: 4 µg/mL (≈ 19.9 µM)
MIC [1, 4]: 4 µg/mL (≈ 19.9 µM)
MIC [1, 5]: 1 µg/mL (≈ 4.97 µM)
SMILES: O=C(NNc1ccccc1)c1ccc[nH]1 [ZFD-42]

MIC [1, 2]: 8 µg/mL (≈ 31.8 µM)
MIC [1, 3]: 8 µg/mL (≈ 31.8 µM)
MIC [1, 4]: 8 µg/mL (≈ 31.8 µM)
MIC [1, 5]: 4 µg/mL (≈ 15.9 µM)
SMILES: O=C(NNc1ccccc1)c1c[nH]c2ccccc12 [ZFD-38]

SMILES: O=C1[C@@H]2Cc3ccccc3CN2C(Cc2ccc(O)c(O)c2)N1Nc1ccccc1 (stereo partly drawn) [ZSD-36]
Anti-USUV activity (inhibition rate) (Usutu virus (USUV); Drug concentration 11 μM): − (−: Inactive)
Anti-USUV activity (inhibition rate) (Usutu virus (USUV); Drug concentration 33 μM): + (+: Partial suppression)
Anti-ZIKV activity (inhibition rate) (Zika virus (ZIKV); Drug concentration 11 μM): − (−: Inactive)
Anti-ZIKV activity (inhibition rate) (Zika virus (ZIKV); Drug concentration 33 μM): − (−: Inactive)

SMILES: O=C(NN1C(=O)[C@@H]2Cc3ccccc3N2[C@H]1c1ccc([N+](=O)[O-])cc1)c1ccc([N+](=O)[O-])cc1 [ZDL-11]
inhibition at 11 µM (Usutu virus (USUV); Drug concentration 11 μM): < 0%
inhibition at 33 µM (Usutu virus (USUV); Drug concentration 33 μM): 0 to 100%
inhibition at 11 µM (Zika virus (ZIKV); Drug concentration 11 μM): < 0%
inhibition at 33 µM (Zika virus (ZIKV); Drug concentration 33 μM): < 0%

SMILES: O=C1[C@@H]2Cc3ccccc3CN2C(c2ccc(O)cc2)N1Nc1ccccc1 (stereo partly drawn) [ZSD-20]
Anti-USUV activity (inhibition rate) (Usutu virus (USUV); Drug concentration 11 μM): − (−: Inactive)
Anti-USUV activity (inhibition rate) (Usutu virus (USUV); Drug concentration 33 μM): + (+: Partial suppression)
Anti-ZIKV activity (inhibition rate) (Zika virus (ZIKV); Drug concentration 11 μM): − (−: Inactive)
Anti-ZIKV activity (inhibition rate) (Zika virus (ZIKV); Drug concentration 33 μM): +++ (+++: Complete suppression)

From patent US20220235057A1, “CYCLIC FORMYL AND CYCLIC KETONE COMPOUNDS, PREPARATION METHOD THEREFOR, AND PHARMACEUTICAL USE” (priority 2019, published 2022)
